From the NIST ThermoML archive (doi:10.1021/je201102x)
Numbers after ± are expanded uncertainties.

Experiment: xn = mol fraction of the nth substance listed
Conditions: 101 kPa, Liquid, Vibrating tube method

CC(=O)O [acetic acid] + CCC(C)O
mass density [kg/m3]
Conditions	293.15 K	298.15 K	303.15 K	313.15 K	323.15 K	333.15 K
x1 = 0.0822	819.04 ± 0.22	814.82 ± 0.22	810.53 ± 0.22	801.69 ± 0.22	792.5 ± 0.22	782.93 ± 0.22
x1 = 0.1628	832.16 ± 0.2	827.83 ± 0.2	823.44 ± 0.2	814.46 ± 0.21	805.17 ± 0.21	795.54 ± 0.21
x1 = 0.2395	845.65 ± 0.19	841.23 ± 0.19	836.76 ± 0.19	827.62 ± 0.19	818.22 ± 0.19	808.51 ± 0.19
x1 = 0.321	861.12 ± 0.17	856.58 ± 0.17	852 ± 0.17	842.7 ± 0.18	833.16 ± 0.18	823.36 ± 0.18
x1 = 0.3979	876.8 ± 0.16	872.17 ± 0.16	867.49 ± 0.16	858.02 ± 0.16	848.33 ± 0.16	838.39 ± 0.16
x1 = 0.4759	893.89 ± 0.14	889.16 ± 0.14	884.37 ± 0.14	874.69 ± 0.15	864.83 ± 0.15	854.77 ± 0.15
x1 = 0.5611	914 ± 0.13	909.12 ± 0.13	904.22 ± 0.13	894.32 ± 0.13	884.26 ± 0.13	874 ± 0.14
x1 = 0.6399	934.04 ± 0.11	929.04 ± 0.11	924.01 ± 0.12	913.87 ± 0.12	903.62 ± 0.12	893.19 ± 0.12
x1 = 0.7197	955.97 ± 0.1	950.84 ± 0.1	945.68 ± 0.1	935.3 ± 0.11	924.81 ± 0.11	914.19 ± 0.11
x1 = 0.8003	980.06 ± 0.09	974.78 ± 0.09	969.49 ± 0.09	958.84 ± 0.1	948.1 ± 0.1	937.26 ± 0.1
x1 = 0.8796	1005.8 ± 0.09	1000.35 ± 0.09	994.91 ± 0.09	983.99 ± 0.09	973.01 ± 0.09	961.97 ± 0.09
x1 = 0.9365	1025.67 ± 0.09	1020.12 ± 0.09	1014.58 ± 0.09	1003.46 ± 0.09	992.31 ± 0.09	981.11 ± 0.09
x1 = 0.9586	1033.71 ± 0.09	1028.12 ± 0.09	1022.54 ± 0.09	1011.36 ± 0.09	1000.14 ± 0.09	988.87 ± 0.09

CCC(=O)O [propanoic acid] + CC(C)CO
mass density [kg/m3]
Conditions	283.15 K	293.15 K	303.15 K	313.15 K	323.15 K	333.15 K
x1 = 0.0803	815.48 ± 0.23	811.49 ± 0.23	807.47 ± 0.23	799.27 ± 0.23	790.86 ± 0.23	782.19 ± 0.23
x1 = 0.1616	829.5 ± 0.22	825.39 ± 0.22	821.25 ± 0.22	812.83 ± 0.22	804.2 ± 0.22	795.34 ± 0.22
x1 = 0.2482	844.79 ± 0.2	840.55 ± 0.2	836.28 ± 0.2	827.63 ± 0.21	818.79 ± 0.21	809.74 ± 0.21
x1 = 0.3212	857.93 ± 0.19	853.59 ± 0.19	849.22 ± 0.19	840.38 ± 0.2	831.37 ± 0.2	822.15 ± 0.2
x1 = 0.4008	872.54 ± 0.18	868.09 ± 0.18	863.61 ± 0.18	854.56 ± 0.18	845.37 ± 0.19	836 ± 0.19
x1 = 0.4828	887.9 ± 0.17	883.34 ± 0.17	878.76 ± 0.17	869.5 ± 0.17	860.12 ± 0.17	850.57 ± 0.18
x1 = 0.5602	902.63 ± 0.16	897.96 ± 0.16	893.27 ± 0.16	883.83 ± 0.16	874.27 ± 0.16	864.57 ± 0.17
x1 = 0.6413	918.47 ± 0.15	913.69 ± 0.15	908.9 ± 0.15	899.25 ± 0.15	889.49 ± 0.15	879.62 ± 0.15
x1 = 0.7201	934.21 ± 0.13	929.32 ± 0.13	924.42 ± 0.14	914.55 ± 0.14	904.62 ± 0.14	894.59 ± 0.14
x1 = 0.8016	950.86 ± 0.12	945.84 ± 0.12	940.81 ± 0.12	930.72 ± 0.13	920.57 ± 0.13	910.32 ± 0.13
x1 = 0.8777	966.86 ± 0.11	961.72 ± 0.11	956.56 ± 0.11	946.23 ± 0.12	935.86 ± 0.12	925.44 ± 0.12
x1 = 0.9586	984.47 ± 0.1	979.16 ± 0.1	973.84 ± 0.1	963.22 ± 0.11	952.58 ± 0.11	941.92 ± 0.11

CCC(=O)O [propanoic acid] + CCC(C)O
mass density [kg/m3]
Conditions	283.15 K	293.15 K	303.15 K	313.15 K	323.15 K	333.15 K
x1 = 0.082	819.64 ± 0.23	815.41 ± 0.23	811.1 ± 0.23	802.26 ± 0.23	793.05 ± 0.23	783.48 ± 0.23
x1 = 0.1717	834.26 ± 0.21	829.91 ± 0.21	825.51 ± 0.21	816.5 ± 0.22	807.2 ± 0.22	797.57 ± 0.22
x1 = 0.2442	846.52 ± 0.2	842.08 ± 0.2	837.6 ± 0.2	828.46 ± 0.21	819.08 ± 0.21	809.41 ± 0.21
x1 = 0.32	859.63 ± 0.19	855.12 ± 0.19	850.56 ± 0.19	841.3 ± 0.2	831.82 ± 0.2	822.11 ± 0.2
x1 = 0.4004	873.99 ± 0.18	869.39 ± 0.18	864.76 ± 0.18	855.37 ± 0.18	845.79 ± 0.19	836 ± 0.19
x1 = 0.4773	887.98 ± 0.17	883.3 ± 0.17	878.59 ± 0.17	869.08 ± 0.17	859.4 ± 0.18	849.54 ± 0.18
x1 = 0.5609	903.61 ± 0.16	898.85 ± 0.16	894.07 ± 0.16	884.41 ± 0.16	874.61 ± 0.16	864.65 ± 0.17
x1 = 0.6404	918.81 ± 0.15	913.96 ± 0.15	909.09 ± 0.15	899.28 ± 0.15	889.36 ± 0.15	879.3 ± 0.15
x1 = 0.7186	934.19 ± 0.13	929.25 ± 0.13	924.29 ± 0.14	914.32 ± 0.14	904.27 ± 0.14	894.07 ± 0.14
x1 = 0.8009	950.85 ± 0.12	945.79 ± 0.12	940.74 ± 0.12	930.57 ± 0.13	920.34 ± 0.13	910.02 ± 0.13
x1 = 0.8776	966.89 ± 0.11	961.72 ± 0.11	956.55 ± 0.11	946.17 ± 0.12	935.75 ± 0.12	925.26 ± 0.12
x1 = 0.9593	984.54 ± 0.1	979.23 ± 0.1	973.9 ± 0.1	963.26 ± 0.11	952.61 ± 0.11	941.92 ± 0.11
